Several values for one entry are separate records, joined by “and”; a condition that tells them apart may be missing. Equal entries are not always repeated.
Key:
[1] = test system: NMC-A β-lactamase reporter (C69X C238X); experiment: NMC-A β-lactamase reporter assay in strain lacking release factor 1; assay type: cell-based, E. coli RTΔA; conditions: RF1-deficient background, two amber codons
[2] = test system: NMC-A β-lactamase reporter (C69X); experiment: NMC-A β-lactamase reporter assay (ampicillin resistance by amber suppression with selenocysteine); assay type: cell-based, E. coli DHΔabc; conditions: DHΔabc; for ampicillin concentration supporting growth (β-lactamase activity): NMC-A C69X reporter, co-expressed with SelA
Source text: A method of genetic selection capable of discriminating different levels of selenocysteine incorporation was developed. To specifically ‘addict’ a reporter protein to selenocysteine rather than serine, the NMC-A β-lactamase from Enterobacter cloacae was used. […] Then cysteine 69 was replaced with an amber stop codon (X69; FIG. 1a) for library selection, hypothesizing that the incorporation of selenocysteine and the formation of a selenyl-sulfhydryl bond would restore activity. (Swardn et al., 1998)
To eliminate any crosstalk between the tRNA^Sec library and the endogenous selenocysteine incorporation machinery, the selA, selB and selC genes (encoding SelA, SelB and tRNA^Sec respectively) were deleted from E. coli DH10B (designated DHΔabc). Cells containing the reporter plasmid pNMC-A C69X and the accessory plasmid pRSF-eSelA (expressing SelA) were transformed with plasmid pMB1-ZU containing the tRNA^Sec antideterminant library. Transformants were plated on media containing a gradient of ampicillin concentrations for selection of mutants capable of selenocysteine-specific suppression. The single colonies that arose covered a range of ampicillin concentrations. […] Of these tRNA^Sec variants, only G7-C66:U49-G65:C50-U64 was detected at the two highest ampicillin concentration (200 and 250 μg·ml^−1).
The tRNA^Sec antideterminant library was generated by enzymatic inverse PCR using oligonucleotide primers (Table 2) to randomize the six positions identified as the main antideterminant for EF-Tu binding. Following self ligation for 16 hours, DNA was ethanol precipitated with GlycoBlue (Ambion) and transformed by electroporation into E. coli DHΔabc containing the plasmids pNMC-A C69X and pRSF-eSelA. Transformants were diluted in 200 ml LB medium containing 12.5 μg·mL^−1 Zeocin, 6.25 μg·mL^−1 tetracycline and 25 μg·mL^−1 kanamycin and incubated overnight. Following overnight growth, cells were diluted 1/50 in LB medium containing 6.25 μg·mL^−1 Zeocin, 3.75 μg·mL^−1 tetracycline, 12.5 μg·mL^−1 kanamycin, 1 μM Na2SeO3 and 20 μg·mL^−1 L-cysteine and incubated for one hour. A series of 250 μl aliquots of cells were plated on LB agar containing 6.25 μg·mL^−1 Zeocin, 3.75 μg·mL^−1 tetracycline, 12.5 […], 1 μM Na2SeO3 and 20 μg·mL^−1 L-cysteine and 50-300 μg·mL^−1 ampicillin in 50 μg·mL^−1 increments. After 20 hours at 37° C. individual colonies were observed on plates containing 50-200 μg·mL^−1 ampicillin. Plasmid DNA was isolated from a selection of colonies from all plates and tRNA^Sec mutations determined by Sanger sequencing.
NotI/NcoI fragments containing tRNA^SecUx were subcloned into pRSF-eSelA to generate pRSF-UX-eSelA. pRSF-U-eSelA variants described in Table 1 were transformed into E. coli DHΔabc containing the reporter plasmid pNMC-A C69TAG. DHΔabc cells containing pNMC-A and pRSFDuet-1 were used as a positive control. DHΔabc cells harboring pNMC-A C69S and pRSF-UX-eSelA, and pNMC-A C69TAG and pRSF-UX-ΔSelA were used as controls for selenocysteine dependent β-lactamase activity. Transformants were cultured overnight in LB medium containing 6.25 μg·mL^−1 tetracycline, 25 μg·mL^−1 kanamycin, 1 μM Na2SeO3 and 20 […]. Following overnight growth, cells were diluted 1/10 in LB medium containing antibiotics, selenite and L-cysteine and incubated for three hours. […]

[3] = test system: E. coli formate dehydrogenase H (FdhH); experiment: Benzyl viologen assay; assay type: cell-based, E. coli DHΔabcF; conditions: FdhH U140TAG or U140S reporter, co-expressed with SelA, anaerobic
Method: The tRNA^Sec variant containing the G7-C66:U49-G65:C50-U64 (SEQ ID NO: 18) antideterminant sequence was designated tRNA^SecUx and was compared with the previously designed chimera (tRNA^UTu) and with a tRNA^Sec derivative designed to have an antideterminant region that should tightly bind EF-Tu (tRNA^UG; FIG. 2a). […] The hybrid tRNA^UTu incorporated selenocysteine and could grow on 75 μg·ml^−1. […] To further confirm tRNA^SecUx incorporated selenocysteine in response to amber stop codons, a standard colorimetric assay was employed based on the activity of the endogenous E. coli selenoprotein formate dehydrogenase H (FdhH) (FIG. 2b).
E. coli DH10B cells containing pRSFDuet-1 and pcat-pheS were used as a positive control. DHΔabcF cells harboring p15A-fdhF U140S and pRSF-UX-eSelA, and p15A-fdhF U140X and pRSF-UX-ΔSelA were used as controls for selenocysteine dependent formate dehydrogenase activity. Transformants were grown overnight at 37° C. in LB medium supplemented with 12.5 μg·mL^−1 tetracycline and 50 μg·mL^−1 kanamycin. Overnight cultures were diluted 1/20 in a final volume of 2 ml and incubated for three hours. Cultures were normalized to OD600=0.5 and 5 μl aliquots were dotted on LB agar plates containing 3.75 μg·mL^−1 tetracycline, 12.5 μg·mL^−1 kanamycin, 5 mM sodium formate, 10 μM Na2MoO4, 1 μM Na2SeO3 and 20 μg·mL^−1 L-cysteine. Plates were incubated at 37° C. for 3 h under aerobic conditions and then transferred to anaerobic conditions at 37° C. for 60 h. Upon removal from the anaerobic chamber, plates were immediately overlaid with agar containing 1 mg·mL^−1 benzyl viologen, 250 mM sodium formate and 25 mM KH2PO4 at pH 7.0. Plates were photographed within 1 h of overlaying.

Row | Substance | formation of functional diselenide bond (U69 and U238) in NMC-A [1] | ampicillin concentration supporting growth (β-lactamase activity) [2] | ampicillin concentration at which the tRNA variant was detected in library selection ([2]; antideterminant library, pNMC-A C69X, pRSF-eSelA) | FdhH activity (reduction of benzyl viologen) [3]
1 | tRNA^SecUx: Evolved E. coli tRNA^Sec variant with the G7-C66:U49-G65:C50-U64 antideterminant sequence and CUA anticodon | could now support the formation of a functional diselenide bond | up to 400 μg·ml^−1 | 200 µg/mL and 250 µg/mL | produced active FdhH
2 | tRNA^UTu (GGAAGATGTGGCCGAGCGGTTGAAGGCACCGGT; expressed or natural sequence) | – | 75 µg/mL | – | produced active FdhH
